What is called IC50 is the concentration that gives 50% inhibition.

These results are taken from patent US20100204460A1, “NATURAL BRASSINOSTEROIDS FOR USE FOR TREATING HYPERPROLIFERATION, TREATING PROLIFERATIVE DISEASES AND REDUCING ADVERSE EFFECTS OF STEROID DYSFUNCTION IN MAMMALS, PHARMACEUTICAL COMPOSITION AND ITS USE” (priority 2007, published 2010).

Common to all, as to format: cell-based
Data set [1] deals with malignant human melanoma cell line G361. Nature of the data set: Calcein AM cytotoxicity assay, G 361. Conditions: G 361; exposure 72 h (b71 says 96 h); mean ± SD; read-out: IC50 assessed by Calcein AM assay of surviving cells.
The test system of data set [2] is LNCaP (androgen-sensitive) prostate cancer cell line. Nature of the data set: MTT cytotoxicity test, LNCaP. Conditions: 24 h, mean ± SD, read-out: IC50 determined by MTT cytotoxicity test. As for the experimental part:
3-(4,5-Dimethylthiazol-2-yl)-2,5-diphenyltetrazolium bromide (MTT) was from Serva Electrophoresis (Heidelberg, Germany). Monoclonal mouse anti-bromodeoxyuridine (BrdU) intibody was obtained from DakoCytomation (Glostrup, Denmark). Calcein AM was obtained from PAA Laboratories GmbH (Pasching, Austria). […] All other cells were cultured in DMEM medium (Sigma, MO, USA). All used media were supplemented with 10% heat-inactivated fetal bovine serum, 2 mmol/L L-glutamine, 1% penicillin/streptomycin. The cell lines were maintained under standard cell culture conditions at 37° C. and 5% CO2 in a humid environment. Cells were subcultured twice or three times a week using the standard trypsinization procedure (Sigma, USA).
Cell viability in this case was assessed by 3-(4,5-dimethylthiozol-2-yl)-2,5-diphenyltetrazolium bromide (MTT) to determine IC50 concentrations of studied agents as described previously. […] The cells (70% to 80% confluent) were treated with brassinosteroids for 6, 12 and 24 h in cell culture medium. Cells that were used as controls were incubated with the maximum used amount of steroid diluent DMSO only. […] The absorbance was read using an ELISA reader Labsystem Multiscan RC at 570 nm. The viability of treated cells was related to the viability of control cells that represented 100% viability. […]
Background: Tetrazolium assays rely on reduction of a dye to a coloured formazan, in cell work by metabolically active cells.

In the next data set the test system is LNCaP cells. Nature of the data set: Western blot of cell cycle and apoptosis related proteins, LNCaP. Conditions: IC50 for 6, 12, 24 h vs untreated control. As for the experimental part: (§1) The cells were seeded in a density 1.6×10^4 cells/cm^2 (LNCaP), 1.4×10^4 cells/cm^2 (DU-145, MDA-MB-468 and MCF-7) using culture medium in 100-mm culture Petri dishes. After reaching of 70-80% confluence, the cells were treated with tested compounds 9 in concentration IC50 that were evaluated by MTT analysis described above. DMSO was used as a vehicle for controls. After 6, 12 and 24 h treatment, the cells were washed with cold PBS and scraped in ice-cold protein extract ion buffer (50 mM HEPES, pH 7.5; 150 mM NaCl; 1 mM EDTA; 2.5 mM EGTA; 10% glycerol; 0.1% Tween 20) with protease and phosphatase inhibitors (25 μL/mL phenylmethanesulphonyl fluoride; 2.5 μL/mL leupeptin; 0.1 mM Na3VO4; 2.5 μL/mL aprotinin; 10 mM β-glycerol-phosphate; 1 mM dithiothreitol). The lysates were collected into microfuge tube and incubated on ice for 1 h. Cells were incubated 60 min at 4° C. under time by time shaking in protein extraction buffer. After centrifugation at 45 000×g for 30 min at 4° C., supernatant was collected, aliquoted, and stored at −80° C. The protein content in the lysates was measured by a Bredford assay (Bio-Rad Laboratories, Hercules, Calif., USA) according to the manufacture's protocol.
(§2) For Western blot analysis, equal aliquots of proteins (15-30 μg/well) were loaded on 10% or 12% SDS-PAGE gels and transferred onto nitrocellulose membranes (Amersham Biosciences, Vienna, Austria) by semi-dry electrophoretic transfer. Coloured marker (Rainbow™, Amersham Biosciences, Vienna, Austria) was used as a protein molecular weight standard. The non-specific binding sites were blocked by incubating the blot with 5% (w/v) non-fat dry milk in PBS for 2 h. The blot was incubated overnight in 4° C. with appropriate primary antibody that detects the protein epitope of interest and finally washed in PBS with 0.1% Tween 20 for 1 h. The blot was incubated with the diluted secondary goat anti-mouse IgG-horseradish peroxidase conjugated antibody (dilution 1:6000, Santa Cruz Biotechnology, Santa Cruz, Calif., USA) or goat anti-rabbit IgG-horseradish peroxidase conjugated antibody (dilution 1:2000, DakoCytomation, Glostrup, Denmark) for 45 min in 4° C. The membrane was washed in PBS with 0.1% Tween 20 for 1 h. The proteins were detected using a chemiluminescence detection system (Amersham Biosciences, Vienna, Austria) according to the protocol provided by the manufacturer. Equality of loaded proteins was confirmed by Ponceau S membrane staining (Sigma, St. Louis, Mo., USA) and by detection of anti-tubulin-α or anti-mcm-7 antibodies. The experiments were repeated three times. The protein expressions in treated cells were compared to untreated controls.
(§3) Western blot analysis was used to detect changes in apoptosis related protein expression in breast and prostate cancer cell lines. […] This decreased expression of Bid can indicate a cleavage of the protein after treatment by BRs. In DU-145 cell line, expression of pro-apoptotic proteins Bax and Bid was unchanged. […] On the other hand, caspase cleavage was not found in DU-145 cells. Poly-(ADP-ribose) polymerase (PARP) positive expression in controls of prostate cancer cell lines was observed but brassinosteroids had no effect on its expression nor on its degradation within the period 6/12/24 h (FIG. 6B).

The next data set deals with DU-145 cells. The experiment in a line: Western blot of cell cycle and apoptosis related proteins, DU-145. Conditions: for MDM-2 level (Western blot) / anti-apoptotic protein Bcl-2 expression (Western blot): IC50 for 6, 12, 24 h vs untreated control; for p53 expression (Western blot): vs untreated control. As for the experimental part: as §1, §2, §3
(In general: A western blot detects proteins with antibodies after separation by electrophoresis.)

Entries after “also recorded” stand apart in the source; their conditions may differ.

Consider `CC[C@@H](C(C)C)[C@@H](O)[C@H](O)[C@@H](C)[C@H]1CC[C@H]2[C@@H]3CC(=O)[C@H]4C[C@H](O)[C@H](O)C[C@]4(C)[C@H]3CC[C@]12C` [Brassinosteroid 9, 28-Homocastasterone], for which, in data set [1], the IC50 was > 50 µM. Besides, the IC50 in data set [2] stood at 45 ± 2.3 µM. Moreover, in the data set with LNCaP cells, the “MDM-2 expression (Western blot)” value is reported as “increased after 9 treatment (6 h)”; the “anti-apoptotic protein Bcl-2 expression (Western blot)” value is “decreased after treatment with 9 (6, 12 and 24 h); also recorded: significant decrease in the levels of anti-apoptotic Bcl-2 protein”; the “caspase-3 cleavage / activation (Western blot)” value is “induced degradation of caspase-3 into its cleaved fragments after all time points (6, 12 and 24 h); also recorded: degradation of procaspase-3 into cleaved fragments was detected after all time points”; the “p21Waf1/Cip1 expression (Western blot)” value is “decreased level of p21^Waf1/Cip1 after 12 h”. Also, in the data set with LNCaP cells, the “p27Kip1 expression (Western blot)” value is given as “increased level of p27^Kip1 after 24 h”; the “p53 expression (Western blot)” value is “decreased expression of p53 after brassinosteroids 9 or 6 treatment was found after 12 and 24 h”; the “pro-apoptotic Bax level (Western blot)” value was “increased level of pro-apoptotic Bax after the 9 treatment after 6 and 12 h; also recorded: increase in the pro-apoptotic Bax protein”. Further, in the data set with DU-145 cells, the “MDM-2 level (Western blot)” value is “decreased level of MDM-2 in all time points”; the “anti-apoptotic protein Bcl-2 expression (Western blot)” value was “decreased after treatment with 9 (6, 12 and 24 h)”; the “p53 expression (Western blot)” value was “no p53 expression changes”.
As to `CC(C)[C@@H](C)[C@@H](O)[C@H](O)[C@@H](C)[C@H]1CC[C@H]2[C@@H]3COC(=O)[C@H]4C[C@H](O)[C@H](O)C[C@]4(C)[C@H]3CC[C@]12C` [Brassinosteroid 6, 24-Epibrassinolide], in data set [1], the IC50 is > 50 µM. Moreover, the IC50 in data set [2] was determined as 60 ± 3.1 µM. In addition, in the data set on LNCaP cells, the “MDM-2 expression (Western blot)” value is recorded as “unchanged”; the “anti-apoptotic protein Bcl-2 expression (Western blot)” value was “decreased after treatment with 9 (6, 12 and 24 h) or 6 (6 and 24 h)”; the “caspase-3 cleavage / activation (Western blot)” value is “activation of caspase-3 after 24 h; also recorded: degradation of procaspase-3 into cleaved fragments was detected after all time points of treatment with 9 and after 24 h treatment with 6”; the “p21Waf1/Cip1 expression (Western blot)” value was “decreased expression of p21^Waf1/Cip1 after 6 and 24 h”. For the same molecule, in the data set with LNCaP cells, the “p27Kip1 expression (Western blot)” value is “decreased expression of p21^Waf1/Cip1 after 6 and 24 h treatment and p27^Kip1 protein expression after 6 and 12 h”; the “p53 expression (Western blot)” value is “decreased expression of p53 after brassinosteroids 9 or 6 treatment was found after 12 and 24 h”. Besides, in the data set with DU-145 cells, the “MDM-2 level (Western blot)” value is listed as “decreased level of MDM-2 in all time points”; the “anti-apoptotic protein Bcl-2 expression (Western blot)” value was “decreased after treatment with 9 (6, 12 and 24 h) or 6 (6 and 24 h)”; the “p53 expression (Western blot)” value was “no p53 expression changes”.
